Structures can show the parent of a compound that is named as a salt.
Columns and labels:
rat agmatinase = assay: Agmatinase activity assay ([14C]-agmatine hydrolysis); format: biochemical; conditions: for Agmatinase activity remaining (%): Conc = 0.5 mM; for Activity for inhibiting agmatinase, in words: among the 14 test compounds
Description: Agmatinase activity was measured by the method of Satishchandran and Boyle (1986) as detailed in Sastre et al. (1996). The assay is based on the hydrolysis of guanido [^14C]-agmatine to [^14C]-urea and putrescine, and subsequent trapping of [^14C]—CO2 from the labeled urea, by the addition of urease. Assays were carried out for 30 minutes at 37° C. in 300 μl of sample containing 100 mM HEPES, pH 7.8, 4 mM MgSO4, 1 mM dithiothreitol, 10 mM L-agmatine, 7 μM [^14C]-agmatine and 0.06 units of urease. Release of [^14C]—CO2 from [^14C]-urea was measured by trapping the [^14C]—CO2 in filter paper wicks saturated with benzethonium hydroxide. The reaction was stopped by injection of 40% trichloroacetic acid into the reaction chamber and the filters transferred to mini-vials containing 5 mL CYTOSCINT® cocktail (ICN Biomedicals), and counted for radioactivity by liquid scintillation spectrometry using a Beckman model LS 5801 scintillation counter.
(§1) QSAR were studied by ab initio Hartree-Fock calculations with the Gaussian 94 computer program (Frisch et al. 1995). Based on the optimized geometry and van der Waals radius of each atom, calculations were performed with BlogP and BlogW programs (Bodor et al. 1989, 1992A, and 1992B) to determine molecular surfaces, volumes, ovalities, partition coefficients, and water solubilities. Linear combinations of these calculated descriptors were then fitted to the observed enzyme activities. The observed activities were the remaining percentage of rat agmatinase activity at 0.5 mM of each compound, the remaining percentage of rat NOS isozyme activity at 1 mM of each compound, and the remaining percentage of rat brain NMDA receptor binding at 0.1 mM of each compound.

rat nNOS (neuronal NOS) = target: T1, rat nNOS (neuronal NOS) (Rattus norvegicus, UniProt P29476); assay: NOS activity, [3H]arginine to [3H]citrulline conversion, nNOS; format: biochemical; conditions: Conc = 1 mM
T1 construct: purchased Cayman, Ann Arbor, Mich
Description: (§2) NOS activity was measured by monitoring the conversion of [^3H]arginine to [^3H]citrulline (Bret et al. 1990) using three commercially available isoforms of rat NOS: nNOS (neuronal NOS) (602 units/ml, 14.9 mg/ml), iNOS (inducible NOS) (249.7 units/ml, 21.1 mg/ml), and eNOS (epithelial NOS) (30 units/ml, 14.6 mg/ml) (Cayman, Ann Arbor, Mich.). Neuronal NOS and iNOS were diluted 1:10, while eNOS was used directly without dilution. Unless otherwise indicated, each tube was incubated at 37° C. for 60 minutes. Assay buffer contained 50 mM Tris-HCl, pH7.4, 2 mM CaCl2, 1 mM NADPH, 10 mM BH4, 5 mM FAD, 5 mM FMN, and 10 mg/ml calmodulin plus radioactive precursor. After incubation, the assay reaction was halted by addition of 400 μl of buffer containing 5 mM EDTA and 50 mM HEPES. Equilibrated resin ([…], Dowex AG50WX-8 (Na^+ form) was added and the reaction mixture was transferred to spin cups and into cup holders. The mixture was passed through the Dowex AG50WX-8 resin and the filtrate collected in a spin cup. NOS activity was determined by counting the radioactivity in the flow-through (unbound) fraction. Each assay was measured in triplicate.
as §1

rat iNOS (inducible NOS) = target: T2, rat iNOS (inducible NOS) (Rattus norvegicus, UniProt Q06518); assay: NOS activity, [3H]arginine to [3H]citrulline conversion, iNOS; format: biochemical; conditions: Conc = 1 mM
T2 construct: purchased Cayman, Ann Arbor, Mich
Description: as §2, §1

[1] = target: T3, rat eNOS (epithelial NOS) (Rattus norvegicus, UniProt Q62600); assay: NOS activity, [3H]arginine to [3H]citrulline conversion, eNOS; format: biochemical; conditions: Conc = 1 mM
T3 construct: purchased Cayman, Ann Arbor, Mich
Description: as §2, §1

rat brain NMDA receptor = assay: [3H]-MK801 binding assay in rat brain membranes; conditions: Conc = 0.1 mM
Description: The binding of [^3H]-MK801 to NMDA (N-methyl-D-aspartate) receptors was measured in rat brain membranes as described in Renolds et al. (1990). Briefly, the membranes were incubated in HEPES buffer (pH 7.4) containing 0.4 nM [^3H]-MK801, 100 μM glutamate, and 30 μM glycine for 1 hour at 25° C. The binding was terminated by rapid filtration over glass fiber filters and radioactivity counted. Nonspecific binding was defined using 50 μM unlabelled MK801.
QSAR were studied by ab initio Hartree-Fock calculations with the Gaussian 94 computer program (Frisch et al. 1995). Based on the optimized geometry and van der Waals radius of each atom, calculations were performed with BlogP and BlogW programs (Bodor et al. 1989, 1992A, and 1992B) to determine molecular surfaces, volumes, ovalities, partition coefficients, and water solubilities. Linear combinations of these calculated descriptors were then fitted to the observed enzyme activities.

With `C=C[C@](N)(CCCNC(=N)N)C(=O)O` (racemic) [Alpha-Vinylarginine] the “Agmatinase activity remaining (%)” value (rat agmatinase) was 52.0%, the remaining activity at 1000 µM (rat nNOS (neuronal NOS)) was 4.2% and the remaining activity at 1000 µM (rat iNOS (inducible NOS)) was 7%. The remaining activity at 1000 µM [1] was 67.4% and the “3H-MK801 Binding Remaining (%)” value (rat brain NMDA receptor) was 99.7%.

`N=C(N)NCCCN` [3-Aminopropylguanidine] was tested, and the “Agmatinase activity remaining (%)” value (rat agmatinase) was 3.1%, the “Activity for inhibiting agmatinase, in words” value (rat agmatinase) was “best activity” and the “Activity Remaining (%) nNOS” value (rat nNOS (neuronal NOS)) was 6.9%. The “Activity Remaining (%) iNOS” value (rat iNOS (inducible NOS)) was 5.1%, the “Activity Remaining (%) eNOS” value [1] was 60.8% and the “3H-MK801 Binding Remaining (%)” value (rat brain NMDA receptor) was 93.9%.

With `O=[N+]([O-])c1cccc2cn[nH]c12` [7-nitroindazole, reference compound] the remaining activity at 1000 µM (rat nNOS (neuronal NOS)) was 1%, the remaining activity at 1000 µM (rat iNOS (inducible NOS)) was 1% and the remaining activity at 1000 µM [1] was 0%.

In the case of `N=C(N)NCCCCN.O=S(=O)(O)O` [Agmatine sulfate, reference compound], the “Agmatinase activity remaining (%)” value (rat agmatinase) was 37%, the remaining activity at 1000 µM (rat nNOS (neuronal NOS)) was 32.5% and the remaining activity at 1000 µM (rat iNOS (inducible NOS)) was 35.2%. For the same compound, the remaining activity at 1000 µM [1] was 97.4% and the “3H-MK801 Binding Remaining (%)” value (rat brain NMDA receptor) was 93.8%.

With `N=C(N)NN` [Amino guanidine, reference compound] the “Agmatinase activity remaining (%)” value (rat agmatinase) was 53%, the remaining activity at 1000 µM (rat nNOS (neuronal NOS)) was 20% and the remaining activity at 1000 µM (rat iNOS (inducible NOS)) was 1%. The remaining activity at 1000 µM [1] was 30% and the “3H-MK801 Binding Remaining (%)” value (rat brain NMDA receptor) was 90.6%.

With `NC(N)=NCCCCN=C(N)N` [Arcaine sulfate, reference compound] the “Agmatinase activity remaining (%)” value (rat agmatinase) was 29.5%, the remaining activity at 1000 µM (rat nNOS (neuronal NOS)) was 9.8% and the remaining activity at 1000 µM (rat iNOS (inducible NOS)) was 37.8%. For the same compound, the remaining activity at 1000 µM [1] was 83.4% and the “3H-MK801 Binding Remaining (%)” value (rat brain NMDA receptor) was 45.1%.

`N=CNCCCNCCCNC=N` [Bis (3-(N-Iminomethyl)-aminopropyl)amine] was tested, and the “Agmatinase activity remaining (%)” value (rat agmatinase) was 38.0%, the “Activity Remaining (%) nNOS” value (rat nNOS (neuronal NOS)) was 23.5% and the “Activity Remaining (%) iNOS” value (rat iNOS (inducible NOS)) was 65.2%. For the same compound, the “Activity Remaining (%) eNOS” value [1] was 88.7% and the “3H-MK801 Binding Remaining (%)” value (rat brain NMDA receptor) was 99.7%.

Trans-4-Aminocyclohexyl guanidine was tested, and the “Agmatinase activity remaining (%)” value (rat agmatinase) was 97.0%, the “Activity for inhibiting agmatinase, in words” value (rat agmatinase) was “best activity” and the “Activity Remaining (%) nNOS” value (rat nNOS (neuronal NOS)) was 42.5%. The “Activity Remaining (%) iNOS” value (rat iNOS (inducible NOS)) was 99.6% and the “Activity Remaining (%) eNOS” value [1] was 69.4%.

From patent publication US7347984B2, “Mammalian agmatinase inhibitory substance” (Jackson State University, priority 2004, dated 2008)
